In PubChem BioAssay (NCI):
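1) Cells in 96-well plates. 2) Compound, 48 h, 5 concentrations. 3) Linear interpolation between surrounding doses. 4) Unreached endpoint = highest concentration. Definition used: TGI = concentration required for complete inhibition of growth.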

Tests used:
Assay in all cases: NCI anticancer screen, dose series, 48 h
OVCAR-3 ovarian = system: OVCAR-3 ovarian
COLO 205 colon = system: COLO 205 colon
SW-620 colon = system: SW-620 colon
UACC-62 melanoma = system: UACC-62 melanoma
UO-31 renal = system: UO-31 renal
HT29 colon = system: HT29 colon
SR leukemia = system: SR leukemia
CAKI-1 renal = system: CAKI-1 renal
KM12 colon = system: KM12 colon
SF-268 CNS = system: SF-268 CNS

| Structure (SMILES) | TGI (OVCAR-3 ovarian) | TGI (COLO 205 colon) | TGI (SW-620 colon) | TGI (UACC-62 melanoma) | TGI (UO-31 renal) | TGI (HT29 colon) | TGI (SR leukemia) | TGI (CAKI-1 renal) | TGI (KM12 colon) | TGI (SF-268 CNS) |
| --- | --- | --- | --- | --- | --- | --- | --- | --- | --- | --- |
| COc1ccc(N=C2C(=Nc3ccc(OC)cc3)N(c3ccccc3)C(=S)N2N=C=C2Sc3ccccc3N2C)cc1 | > 100 µM | > 100 µM | > 100 µM | > 100 µM | > 100 µM | > 100 µM | > 100 µM | > 100 µM | > 100 µM | > 100 µM |
| O=C(/C=C/c1csc(-c2ccccc2)n1)NCc1ccc(C(=O)NCc2ccccc2)cc1 | > 100 µM | > 100 µM | > 100 µM | > 100 µM | > 100 µM | > 100 µM | > 100 µM | > 100 µM | > 100 µM | > 100 µM |
| C#CCOCC12C=CC(O1)C1C(=O)OCC12 (configuration not stated) | > 100 µM | > 100 µM | > 100 µM | > 100 µM | > 100 µM | > 100 µM | > 100 µM | > 100 µM | > 100 µM | > 100 µM |
| Cc1ccc2c(=O)cc(-c3ccc(-c4ccccc4)s3)[nH]c2n1 | > 100 µM | > 100 µM | > 100 µM | > 100 µM | 0.219 µM | > 100 µM | 8.35 µM | > 100 µM | > 100 µM | > 100 µM |
| Cc1ccc2nc(NC(=O)/C(Cc3nc4ccc(Cl)cc4[nH]c3=O)=N\NC(C)(C)C)sc2c1 | > 100 µM | > 100 µM | > 100 µM | > 100 µM | > 100 µM | > 100 µM | > 100 µM | 89.7 µM | > 100 µM | > 100 µM |
| CC(C)[C@@H]1ON1C(C)c1ccccc1 (some centres not stated) | > 100 µM | > 100 µM | > 100 µM | > 100 µM | > 100 µM | > 100 µM | > 100 µM | 34.7 µM | > 100 µM | > 100 µM |
| CCOc1cc(NC(C)=O)ccc1C(=O)NN1C(=O)C(Cl)C1c1ccco1 (configuration not stated) | 32 µM | 38.3 µM | > 100 µM | 25.6 µM | 11.5 µM | 38.8 µM | 35.9 µM | 30.9 µM | 33.6 µM | 35.1 µM |
| OC(c1ccc(-c2ccccc2)cc1)C(F)(F)c1nc2ccccc2o1 (configuration not stated) | > 100 µM | > 100 µM | > 100 µM | > 100 µM | > 100 µM | > 100 µM | > 100 µM | 61.2 µM | > 100 µM | > 100 µM |
| COc1nc(N)c(N=CC(OC(C)=O)C(OC(C)=O)C(COC(C)=O)OC(C)=O)c(=O)n1C (configuration not stated) | > 100 µM | > 100 µM | > 100 µM | > 100 µM | > 100 µM | > 100 µM | > 100 µM | > 100 µM | > 100 µM | > 100 µM |
| CCN(c1cccc(NC(=S)Nc2ccccc2N(CC)c2cc(-c3ccccc3)no2)c1)c1cc(-c2ccccc2)no1 | > 100 µM | > 100 µM | > 100 µM | > 100 µM | > 100 µM | > 100 µM | > 100 µM | > 100 µM | > 100 µM | > 100 µM |
| COc1ccc(-n2cnc3c(NC(CCSC)C(=O)O)ncnc32)cc1 (configuration not stated) | > 100 µM | > 100 µM | > 100 µM | > 100 µM | > 100 µM | > 100 µM | > 100 µM | > 100 µM | > 100 µM | > 100 µM |
| COC(=O)c1cnn2c1n[n+]([O-])c1ccccc12 | > 100 µM | > 100 µM | > 100 µM | > 100 µM | > 100 µM | > 100 µM | > 100 µM | > 100 µM | > 100 µM | > 100 µM |
| COc1cc2c(cc1OC)C1(c3ccc(Cl)cc3)ON=C(c3ccccc3)N1CS2 (configuration not stated) | > 100 µM | > 100 µM | > 100 µM | > 100 µM | > 100 µM | > 100 µM | > 100 µM | > 100 µM | > 100 µM | > 100 µM |
| COc1cccc(N2C(=O)C3c4[nH]c5ccc(C)cc5c4C4CCC(C(C)(C)C)CC4C3C2=O)c1 (configuration not stated) | > 10 µM | > 10 µM | > 10 µM | > 10 µM | > 10 µM | > 10 µM | 4.03 µM | > 10 µM | > 10 µM | > 10 µM |
| COC(=O)c1c(OC(C)=O)ccc2c1c1c(OC(C)=O)c3ccccc3c(OC(C)=O)c1n2Cc1ccccc1 | 3.52 µM | 15.6 µM | – | 20.3 µM | 24.7 µM | 31.5 µM | > 50 µM | 27.9 µM | 5.65 µM | 19.4 µM |
| CC(C)(CC(O)C#N)/[N+]([O-])=[N+](\[O-])C(C)(C)CC(O)C#N (configuration not stated) | 69.2 µM | 31.7 µM | 34.1 µM | 37.2 µM | 98.1 µM | > 100 µM | 49.5 µM | 30.4 µM | > 100 µM | 83.1 µM |

| Structure (SMILES) | TGI (OVCAR-3 ovarian) | TGI (COLO 205 colon) | TGI (SW-620 colon) | TGI (UACC-62 melanoma) | TGI (UO-31 renal) | TGI (HT29 colon) | TGI (SR leukemia) | TGI (CAKI-1 renal) | TGI (KM12 colon) | TGI (SF-268 CNS) |
| --- | --- | --- | --- | --- | --- | --- | --- | --- | --- | --- |
| CCOC(=O)c1ccc(C(=O)C(C(C)=O)C(=O)OC(C)(C)C)[nH]1 (configuration not stated) | > 100 µM | > 100 µM | > 100 µM | > 100 µM | > 100 µM | > 100 µM | > 100 µM | > 100 µM | > 100 µM | > 100 µM |
| Cc1ccc(/C(O)=C/C(=O)C(=O)NN=C(c2ccccc2)c2ccccc2)cc1 | > 100 µM | > 100 µM | > 100 µM | > 100 µM | > 100 µM | > 100 µM | > 100 µM | > 100 µM | > 100 µM | > 100 µM |
| O=C(Nc1cccc(F)c1)c1cc2ccc(O)cc2oc1=Nc1ccccc1F | 14.7 µM | 41.7 µM | 45.4 µM | 24 µM | 14.2 µM | 51.5 µM | 39.5 µM | 15 µM | 22.4 µM | 15.4 µM |
| Cc1ccc(/C=C2\CCCC(CN3CCCCC3)C2=O)cc1 (configuration not stated) | 3.39 µM | 3.25 µM | 3.14 µM | 16.4 µM | 3.58 µM | 3.28 µM | > 100 µM | 3.19 µM | 2.72 µM | 4.07 µM |
| N#C/C(=C\c1c[nH]c2ccccc12)C(=O)c1ccc(O)c(O)c1 | 17.2 µM | > 67.7 µM | > 100 µM | > 100 µM | 45.9 µM | > 70.8 µM | > 31.6 µM | > 100 µM | > 100 µM | > 100 µM |
| CC[C@@H](/C=C\CCC(=O)C[C@H](O)CCC=C(C)C)O[Si](C(C)C)(C(C)C)C(C)C | > 100 µM | > 100 µM | > 100 µM | > 100 µM | > 100 µM | > 100 µM | > 100 µM | > 100 µM | > 100 µM | > 100 µM |
| Brc1ccc(-c2cn3ccncc3n2)cc1 | > 100 µM | > 100 µM | – | > 100 µM | > 100 µM | > 100 µM | > 100 µM | > 100 µM | > 100 µM | > 100 µM |
| O=C(Cc1ccccc1)NN1C(=O)C(Cl)C1c1ccccc1O (configuration not stated) | > 100 µM | > 100 µM | > 100 µM | > 100 µM | 36.8 µM | > 100 µM | > 100 µM | > 100 µM | – | > 100 µM |
| CCN(CC)CCNCc1cc(Cl)cc2c1OCOC2 | > 10 µM | > 10 µM | > 10 µM | > 10 µM | > 10 µM | > 10 µM | > 10 µM | > 10 µM | > 10 µM | > 10 µM |
| COc1ccc(CSc2ccccc2Cn2cccc2)cc1OC | > 100 µM | > 100 µM | > 100 µM | > 100 µM | > 100 µM | > 100 µM | > 100 µM | > 100 µM | > 100 µM | > 100 µM |
| O=c1onc2c3ccccc3ncn12 | > 100 µM | > 100 µM | > 100 µM | > 100 µM | > 100 µM | > 100 µM | > 100 µM | > 100 µM | > 100 µM | > 100 µM |
| C[C@H]1C=C2[C@@H]3CC(C)(C(=O)O)CC[C@]3(C)CC[C@]2(C)[C@]2(C)CC[C@H]3C(C)(C)[C@@H](OC(=O)c4cccc5c(=O)c6ccccc6[nH]c45)CC[C@]3(C)[C@@H]12 (some centres not stated) | > 100 µM | > 100 µM | > 100 µM | > 100 µM | > 100 µM | > 100 µM | > 100 µM | > 100 µM | > 100 µM | > 100 µM |
| OC1(c2ccccc2)CSC2=Nc3ccccc3C3CCN1N23 (configuration not stated) | > 100 µM | 32.3 µM | 47.1 µM | 46.3 µM | 28.7 µM | 33.8 µM | 55.4 µM | 72.6 µM | 42 µM | 58.5 µM |
| O=C(O)CNC(=O)c1c2ccccc2nc2ccccc12 | > 100 µM | > 100 µM | > 100 µM | > 100 µM | > 100 µM | > 100 µM | > 100 µM | > 100 µM | > 100 µM | > 100 µM |
| COC(=O)C1=C(OC(=O)c2ccccc2)C(C(=O)OC)[C@]2(O)[C@@H](C(=O)OC)[C@H]1C[C@@H](c1ccccc1)[C@@H]2C(=O)OC (some centres not stated) | 57.4 µM | 21.8 µM | 40.1 µM | 60.4 µM | 10.1 µM | 30.7 µM | 31.3 µM | > 100 µM | > 100 µM | 36.8 µM |
| C/C(=C/CC[C@]1(CO)CC[C@]2(CO)[C@H](CC[C@@H]3[C@@]4(C)CC[C@H](OC5OCC(O)C(O)C5OC5OC(CO)C(O)C(O)C5O)C(C)(C)[C@@H]4CC[C@]32C)[C@H]1O)CO (some centres not stated) | > 100 µM | > 100 µM | > 100 µM | > 100 µM | > 100 µM | > 100 µM | > 100 µM | > 100 µM | > 100 µM | > 100 µM |
